According to EP4582423A1, “NOVEL TRICYCLIC DERIVATIVE COMPOUND AND USES THEREOF” (Hanmi Pharm. Co., Ltd., priority 2022, dated 2024):

Each molecule was assayed on HCT116 MTAP-/- cells (assay: Cell growth inhibition test (SRB staining)). Settings: HCT116 MTAP-/- cells, 0.64 nM - 2,000 nM, 6 dose points, 6 days, SRB staining, absorbance at 540 nm; read-out: HCT116 MTAP-/- cell growth inhibition (GI50).
Assay type: cell-based
Procedure: The synthetic compounds above were tested for cell growth inhibition against HCT116 cells.
HCT116 MTAP-/- (homozygous knockout of MTAP gene in HCT116 MTAP-WT cells by CRISPER/Cas9 method) cells were maintained in RPMI1640 medium containing 10 % FBS and 1 % penicillin-streptomycin. Approximately 5×10^2 cells were seeded in a 96-well plate and treated with a test compound. (0.64 nM - 2,000 nM, 6 dose points for HCT116 MTAP-/- cells for 5x and 6 days) cell growth was measured by SRB staining and absorbance was detected at 540 nm on a Synergy™ NEO microplate reader. The 50 % growth inhibition value (GI50) of the cell line was calculated using GraphPad Prism V9 software.

Molecule	GI50
7-chloro-2-(4-methoxyphenyl)-1-methyl-5-(o-tolyl)-1,5-dihydro-4H-imidazo[4,5-c]quinolin-4-one [Compound 10]	< 100 nM

Same assay, conditions: Homo sapiens, HCT-116, 144 h, read-out: HCT116 MTAP-/- cell growth inhibition (GI50, nM)

Molecule	GI50
Cn1c(Cc2ccccc2)nc2c(=O)n(-c3ccccc3)c3cc(Cl)ccc3c21 [Compound 1, 2-benzyl-7-chloro-1-methyl-5-phenyl-1,5-dihydro-4H-imidazo[4,5-c]quinolin-4-one]	100 to 500 nM

Same assay, conditions: Homo sapiens, HCT-116, 144 h; HCT116 MTAP-/- cells, 0.64 nM - 2,000 nM, 6 dose points, 6 days, SRB staining, absorbance at 540 nm; read-out: HCT116 MTAP-/- cell growth inhibition (GI50)

Molecule	GI50
COc1ccc(Sc2nc3c(=O)n(-c4ccccc4)c4cc(Cl)ccc4c3n2C)cc1 [Compound 18, 7-chloro-2-((4-methoxyphenyl)thio)-1-methyl-5-phenyl-1,5-dihydro-4H-imidazo[4,5-c]quinolin-4-one]	< 100 nM
COc1ccc(Cc2nc3c(=O)n(-c4ccccc4)c4nc(NCC(F)(F)F)ccc4c3n2C)cc1 [Compound 15, 2-(4-methoxybenzyl)-1-methyl-5-phenyl-7-((2,2,2-trifluoroethyl)amino)-1,5-dihydro-4H-imidazo[4,5-c][1,8]naphthyridin-4-one]	> 1000 nM
Cc1ncccc1-n1c(=O)c2nc(Cc3ccc(F)cc3)n(C)c2c2ccc(Cl)cc21 [Compound 28, 7-chloro-2-(4-fluorobenzyl)-1-methyl-5-(2-methylpyridin-3-yl)-1,5-dihydro-4H-imidazo[4,5-c]quinolin-4-one]	< 100 nM
COc1ccc(Cc2nc3c(=O)n(-c4ccccc4C(F)(F)F)c4cc(Cl)ccc4c3n2C)cc1 [Compound 25, 7-chloro-2-(4-methoxybenzyl)-1-methyl-5-(2-(trifluoromethyl)phenyl)-1,5-dihydro-4H-imidazo[4,5-c]quinolin-4-one]	100 to 500 nM
Cn1c(CCc2ccccc2)nc2c(=O)n(-c3ccccc3)c3cc(Cl)ccc3c21 [Compound 9, 7-chloro-1-methyl-2-phenethyl-5-phenyl-1,5-dihydro-4H-imidazo[4,5-c]quinolin-4-one]	> 1000 nM
CCc1ccc2c3c(nc(Cc4ccc(OC(F)F)cc4)n3C)c(=O)n(-c3cccnc3C)c2c1 [Compound 54, 2-(4-(difluoromethoxy)benzyl)-7-ethyl-1-methyl-5-(2-methylpyridin-3-yl)-1,5-dihydro-4H-imidazo[4,5-c]quinolin-4-one]	< 100 nM
COc1ccc(Nc2nc3c(=O)n(-c4ccccc4)c4cc(Cl)ccc4c3n2C)cc1 [Compound 40, 7-chloro-2-((4-methoxyphenyl)amino)-1-methyl-5-phenyl-1,5-dihydro-4H-imidazo[4,5-c]quinolin-4-one]	> 1000 nM
Cn1c(Cc2ccncc2)nc2c(=O)n(-c3ccccc3)c3cc(Cl)ccc3c21 [Compound 7, 7-chloro-1-methyl-5-phenyl-2-(pyridin-4-ylmethyl)-1,5-dihydro-4H-imidazo[4,5-c]quinolin-4-one]	> 1000 nM
Cc1ncccc1-n1c(=O)c2nc(Sc3ccc(F)cc3F)n(C)c2c2ccc(Cl)cc21 [Compound 39, 7-chloro-2-((2,4-difluorophenyl)thio)-1-methyl-5-(2-methylpyridin-3-yl)-1,5-dihydro-4H-imidazo[4,5-c]quinolin-4-one]	< 100 nM
COc1ccc(Cc2nc3c(=O)n(-c4cccnc4C)c4cc(C)ccc4c3n2C)cc1 [Compound 49, 2-(4-methoxybenzyl)-1,7-dimethyl-5-(2-methylpyridin-3-yl)-1,5-dihydro-4H-imidazo[4,5-c]quinolin-4-one]	100 to 500 nM
Cc1ncccc1-n1c(=O)c2nc(Cc3ccc(OC(F)F)cc3)n(C)c2c2ccc(C3CC3)nc21 [Compound 66, 7-cyclopropyl-2-(4-(difluoromethoxy)benzyl)-1-methyl-5-(2-methylpyridin-3-yl)-1,5-dihydro-4H-imidazo[4,5-c][1,8]naphthyridin-4-one]	< 100 nM
COc1ccc2c3c(nc(Cc4ccc(OC(F)F)cc4)n3C)c(=O)n(-c3cccnc3C)c2c1 [Compound 55, 2-(4-(Difluoromethoxy)benzyl)-7-methoxy-1-methyl-5-(2-methylpyridin-3-yl)-1,5-dihydro-4H-imidazo[4,5-c]quinolin-4-one]	< 100 nM
COc1ccccc1Cc1nc2c(=O)n(-c3ccccc3)c3cc(Cl)ccc3c2n1C [Compound 5, 7-chloro-2-(2-methoxybenzyl)-1-methyl-5-phenyl-1,5-dihydro-4H-imidazo[4,5-c]quinolin-4-one]	100 to 500 nM
COc1ccc(Sc2nc3c(=O)n(-c4cccnc4C)c4nc(C(F)(F)F)ccc4c3n2C)cc1 [Compound 59, 2-((4-methoxyphenyl)thio)-1-methyl-5-(2-methylpyridin-3-yl)-7-(trifluoromethyl)-1,5-dihydro-4H-imidazo[4,5-c][1,8]naphthyridin-4-one]	< 100 nM
Cn1c(Cn2ccnc2)nc2c(=O)n(-c3ccccc3)c3cc(Cl)ccc3c21 [Compound 12, 2-((1H-imidazol-1-yl)methyl)-7-chloro-1-methyl-5-phenyl-1,5-dihydro-4H-imidazo[4,5-c]quinolin-4-one]	> 1000 nM
Cn1c(Cc2ccc(O)cc2)nc2c(=O)n(-c3ccccc3)c3cc(Cl)ccc3c21 [Compound 3, 7-chloro-2-(4-hydroxybenzyl)-1-methyl-5-phenyl-1,5-dihydro-4H-imidazo[4,5-c]quinolin-4-one]	> 1000 nM
CCc1ccc2c3c(nc(Cc4ccc(OC)cc4)n3C)c(=O)n(-c3cccnc3C)c2c1 [Compound 45, 7-Ethyl-2-(4-methoxybenzyl)-1-methyl-5-(2-methylpyridin-3-yl)-1,5-dihydro-4H-imidazo[4,5-c]quinolin-4-one]	< 100 nM
Cc1ncccc1-n1c(=O)c2nc(Sc3ccc(F)c(F)c3)n(C)c2c2ccc(Cl)cc21 [Compound 37, 7-chloro-2-((3,4-difluorophenyl)thio)-1-methyl-5-(2-methylpyridin-3-yl)-1,5-dihydro-4H-imidazo[4,5-c]quinolin-4-one]	< 100 nM
COc1ccc(Cc2nc3c(=O)n(-c4cccnc4C)c4cc(C(C)C)ccc4c3n2C)cc1 [Compound 48, 7-isopropyl-2-(4-methoxybenzyl)-1-methyl-5-(2-methylpyridin-3-yl)-1,5-dihydro-4H-imidazo[4,5-c]quinolin-4-one]	100 to 500 nM
Cc1ncccc1-n1c(=O)c2nc(Cc3ccc(OC(F)F)cc3)n(C)c2c2ccc(C(F)(F)F)nc21 [Compound 58, 2-(4-(Difluoromethoxy)benzyl)-1-methyl-5-(2-methylpyridin-3-yl)-7-(trifluoromethyl)-1,5-dihydro-4H-imidazo[4,5-c][1,8]naphthyridin-4-one]	< 100 nM
COc1ccc([S+]([O-])c2nc3c(=O)n(-c4ccccc4)c4cc(Cl)ccc4c3n2C)cc1 (centres unmarked) [Compound 20, 7-chloro-2-((4-methoxyphenyl)sulfinyl)-1-methyl-5-phenyl-1,5-dihydro-4H-imidazo[4,5-c]quinolin-4-one]	500 to 1000 nM
Cc1ncccc1-n1c(=O)c2nc(Cc3ccc(F)c(F)c3)n(C)c2c2ccc(Cl)cc21 [Compound 30, 7-chloro-2-(3,4-difluorobenzyl)-1-methyl-5-(2-methylpyridin-3-yl)-1,5-dihydro-4H-imidazo[4,5-c]quinolin-4-one]	< 100 nM
COc1ccc(Cc2nc3c(=O)n(-c4cccnc4C)c4cc(OC)ccc4c3n2C)cc1 [Compound 51, 7-methoxy-2-(4-methoxybenzyl)-1-methyl-5-(2-methylpyridin-3-yl)-1,5-dihydro-4H-imidazo[4,5-c]quinolin-4-one]	< 100 nM
COc1ccc(Cc2nc3c(=O)n(-c4cccnc4C)c4cc(C(F)(F)F)ccc4c3n2C)cc1 [Compound 27, 2-(4-methoxybenzyl)-1-methyl-5-(2-methylpyridin-3-yl)-7-(trifluoromethyl)-1,5-dihydro-4H-imidazo[4,5-c]quinolin-4-one]	< 100 nM
COc1ccc(Cc2nc3c(=O)n(-c4cccnc4C)c4nc(C(F)(F)F)ccc4c3n2C)cc1 [Compound 57, 2-(4-methoxybenzyl)-1-methyl-5-(2-methylpyridin-3-yl)-7-(trifluoromethyl)-1,5-dihydro-4H-imidazo[4,5-c][1,8]naphthyridin-4-one]	< 100 nM
COc1ccc(Cc2nc3c(=O)n(-c4cccnc4)c4cc(Cl)ccc4c3n2C)cc1 [Compound 31, 7-chloro-2-(4-methoxybenzyl)-1-methyl-5-(pyridin-3-yl)-1,5-dihydro-4H-imidazo[4,5-c]quinolin-4-one]	< 100 nM
O=c1c2nc(Cc3ccccc3)[nH]c2c2ccc(Cl)cc2n1-c1ccccc1 [Compound 11, 2-benzyl-7-chloro-5-phenyl-1,5-dihydro-4H-imidazo[4,5-c]quinolin-4-one]	500 to 1000 nM
COc1ccc(Sc2nc3c(=O)n(-c4cccnc4C)c4nc(C(F)(F)F)ncc4c3n2C)cc1 [Compound 61, 2-((4-methoxyphenyl)thio)-1-methyl-5-(2-methylpyridin-3-yl)-7-(trifluoromethyl)-1,5-dihydro-4H-imidazo[4',5':4,5]pyrido[2,3-d]pyrimidin-4-one]	< 100 nM
COc1ccc(Cc2nc3c(=O)n(-c4ccccc4)c4cc(Cl)ccc4c3n2C)cc1OC [Compound 8, 7-chloro-2-(3,4-dimethoxybenzyl)-1-methyl-5-phenyl-1,5-dihydro-4H-imidazo[4,5-c]quinolin-4-one]	100 to 500 nM
COc1ccc(Sc2nc3c(=O)n(-c4ccc(OC)cc4)c4cc(Cl)ccc4c3n2C)cc1 [Compound 34, 7-chloro-5-(4-methoxyphenyl)-2-((4-methoxyphenyl)thio)-1-methyl-1,5-dihydro-4H-imidazo[4,5-c]quinolin-4-one]	> 1000 nM
